Data published in paper PMC7785020, “A unique hormonal recognition feature of the human glucagon-like peptide-2 receptor” (Cell Research, 2020).
Numbering of substitutions follows the chain as printed.

Legend:
Design in all cases: WT (1–553); expressed in transfected cells
[1] = biological target: T1, GLP-2R R242^ECL1A (Homo sapiens, UniProt O95838, R242A); assay: radioligand competition binding, R242^ECL1A; details: COS-7, R242^ECL1A; [^125I]GLP-2(1–33, M10Y) 10–15 pM, 4 h, 4 °C; mean ± SEM, n ≥ 3 in duplicate
T1 sequence (O95838 1-553 R242A): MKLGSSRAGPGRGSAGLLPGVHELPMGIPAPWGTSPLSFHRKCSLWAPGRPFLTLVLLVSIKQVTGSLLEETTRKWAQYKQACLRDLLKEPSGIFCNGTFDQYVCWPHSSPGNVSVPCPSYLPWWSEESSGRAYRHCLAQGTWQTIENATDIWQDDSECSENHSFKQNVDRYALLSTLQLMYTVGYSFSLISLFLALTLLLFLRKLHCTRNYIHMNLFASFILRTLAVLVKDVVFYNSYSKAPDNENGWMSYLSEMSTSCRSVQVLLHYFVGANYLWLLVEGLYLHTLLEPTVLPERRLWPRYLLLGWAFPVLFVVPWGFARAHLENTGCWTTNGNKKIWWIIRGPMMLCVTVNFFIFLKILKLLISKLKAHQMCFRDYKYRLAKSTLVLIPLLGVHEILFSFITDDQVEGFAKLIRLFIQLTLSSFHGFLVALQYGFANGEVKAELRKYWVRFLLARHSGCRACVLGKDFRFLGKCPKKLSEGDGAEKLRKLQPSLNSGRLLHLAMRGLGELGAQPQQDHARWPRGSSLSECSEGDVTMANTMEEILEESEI
Procedure: (§1) A stepwise oxidation reaction was performed by addition of 6 aliquots of 5 µL ChloramineT (30 µL/mL) with a 1-min interval during constant stirring. The reaction was terminated by the addition of 400 µL phase A (0.1% trifluoracetic acid) before being fractionated into 1 mL volume by reverse-phase high-performance liquid chromatography (RP-HPLC, Waters 600 SimiPrep system) on a C18 column. The iodinated protein was […] by increasing concentrations of phase B (Acetonitrile + 0.1% TFA) and tested for competitive binding ability.
(§2) One day before transfection, the COS-7 cells were seeded in 75 cm^2 culture flasks (3 million cells/flask) in DMEM, containing 3.9 g/L NaHCO3 and supplemented with 10% FBS, 1% L-glutamine, 180 units/mL penicillin and 45 µg/mL streptomycin. After an overnight culture at 37 °C, 10% CO2 and 95% air humidity, the cells were transiently transfected with different GLP-2R constructs or pcDNA3.1 vector as previously described.[52] Following 24-h incubation, the cells were transferred to Costa® microtiter plates (150,000 cells/well, PerkinElmer) to achieve a 5%–10% specific binding. […] The cells were then washed twice in binding buffer (4 °C), lysed and counted for radioactivity using a Wallac Gamma Counter (PerkinElmer).

[2] = biological target: T2, GLP-2R H268^3.37A (Homo sapiens, UniProt O95838, H268A); assay: radioligand competition binding, H268^3.37A; details: COS-7, H268^3.37A; [^125I]GLP-2(1–33, M10Y) 10–15 pM, 4 h, 4 °C; mean ± SEM, n ≥ 3 in duplicate
T2 sequence (O95838 1-553 H268A): T1 sequence (O95838 1-553 R242A) with A242R, H268A
Procedure: as §1, §2

[3] = biological target: T3, GLP-2R K231^2.67A (Homo sapiens, UniProt O95838, K231A); assay: radioligand competition binding, K231^2.67A; details: COS-7, K231^2.67A; [^125I]GLP-2(1–33, M10Y) 10–15 pM, 4 h, 4 °C; n ≥ 3 in duplicate
T3 sequence (O95838 1-553 K231A): T1 sequence (O95838 1-553 R242A) with K231A, A242R
Procedure: as §1, §2

| Compound | % Binding of WT [1] [%] | % Binding of WT [2] [%] | % Binding of WT [3] |
| --- | --- | --- | --- |
| CC[C@H](C)[C@H](NC(=O)[C@H](Cc1ccccc1)NC(=O)[C@H](CC(=O)O)NC(=O)[C@H](CCCNC(=N)N)NC(=O)[C@H](C)NC(=O)[C@H](C)NC(=O)[C@H](CC(C)C)NC(=O)[C@H](CC(N)=O)NC(=O)[C@H](CC(=O)O)NC(=O)[C@H](CC(C)C)NC(=O)[C@@H](NC(=O)[C@@H](NC(=O)[C@H](CC(N)=O)NC(=O)[C@H](CCSC)NC(=O)[C@H](CCC(=O)O)NC(=O)[C@H](CC(=O)O)NC(=O)[C@H](CO)NC(=O)[C@H](Cc1ccccc1)NC(=O)[C@H](CO)NC(=O)CNC(=O)[C@H](CC(=O)O)NC(=O)[C@H](C)NC(=O)[C@@H](N)Cc1c[nH]cn1)[C@@H](C)O)[C@@H](C)CC)C(=O)N[C@@H](CC(N)=O)C(=O)N[C@@H](Cc1c[nH]c2ccccc12)C(=O)N[C@@H](CC(C)C)C(=O)N[C@H](C(=O)N[C@@H](CCC(N)=O)C(=O)N[C@H](C(=O)N[C@@H](CCCCN)C(=O)N[C@H](C(=O)N[C@H](C(=O)N[C@@H](CC(=O)O)C(=O)O)[C@@H](C)O)[C@@H](C)CC)[C@@H](C)O)[C@@H](C)CC [Human GLP-2 (1–33)] | 4.2 ± 0.6 | 2.1 ± 0.8 | N.B. |
| CC[C@H](C)[C@H](NC(=O)[C@H](Cc1ccccc1)NC(=O)[C@H](CC(=O)O)NC(=O)[C@H](CCCNC(=N)N)NC(=O)[C@H](C)NC(=O)[C@H](C)NC(=O)[C@H](CC(C)C)NC(=O)[C@H](CC(N)=O)NC(=O)[C@H](CC(=O)O)NC(=O)[C@H](CC(C)C)NC(=O)[C@@H](NC(=O)[C@@H](NC(=O)[C@H](CC(N)=O)NC(=O)[C@H](CCSC)NC(=O)[C@H](CCC(=O)O)NC(=O)[C@H](CC(=O)O)NC(=O)[C@H](CO)NC(=O)[C@H](Cc1ccccc1)NC(=O)[C@H](CO)NC(=O)CNC(=O)[C@H](CC(=O)O)NC(=O)CNC(=O)[C@@H](N)Cc1c[nH]cn1)[C@@H](C)O)[C@@H](C)CC)C(=O)N[C@@H](CC(N)=O)C(=O)N[C@@H](Cc1c[nH]c2ccccc12)C(=O)N[C@@H](CC(C)C)C(=O)N[C@H](C(=O)N[C@@H](CCC(N)=O)C(=O)N[C@H](C(=O)N[C@@H](CCCCN)C(=O)N[C@H](C(=O)N[C@H](C(=O)N[C@@H](CC(=O)O)C(=O)O)[C@@H](C)O)[C@@H](C)CC)[C@@H](C)O)[C@@H](C)CC [Teduglutide] | 5.1 ± 1.5 | 0.7 ± 1.8 | N.B. |
